ChEMBL document CHEMBL1138088, “Design and synthesis of selective keto-1,2,4-oxadiazole-based tryptase inhibitors” (Bioorg Med Chem Lett, 2006)

How the values were obtained:
Tryptase beta-1 = Tryptase beta-1 (Homo sapiens, UniProt Q15661); experiment: Inhibition of human B tryptase; details: read-out: Ki app
Trypsin = Trypsin (Homo sapiens, UniProt P07477+P07478+P35030); experiment: Inhibition of trypsin; assay type: protein assay
Homo sapiens = species on record: Homo sapiens; experiment: Selectivity for tryptase over trypsin
Prothrombin = Prothrombin (Homo sapiens, UniProt P00734); experiment: Inhibition of thrombin; details: read-out: Ki app
Plasminogen = Plasminogen (Homo sapiens, UniProt P00747); experiment: Inhibition of plasmin; details: read-out: Ki app
Plasma kallikrein = Plasma kallikrein (Homo sapiens, UniProt P03952); experiment: Inhibition of kallikrein; details: read-out: Ki app
[1] = target: Vitamin K-dependent protein C (Homo sapiens, UniProt P04070); experiment: Inhibition of APC; details: read-out: Ki app
Chymotrypsinogen B = Chymotrypsinogen B (Homo sapiens, UniProt P17538); experiment: Inhibition of chymotrypsin; details: read-out: Ki app
[2] = Inhibition of elastase; parameters: species or system Homo sapiens; details: read-out: Ki app
Chymase = target: T1, Chymase (Homo sapiens, UniProt P23946); experiment: Inhibition of chymase; details: read-out: Ki app
T1 sequence (P23946 whole entry): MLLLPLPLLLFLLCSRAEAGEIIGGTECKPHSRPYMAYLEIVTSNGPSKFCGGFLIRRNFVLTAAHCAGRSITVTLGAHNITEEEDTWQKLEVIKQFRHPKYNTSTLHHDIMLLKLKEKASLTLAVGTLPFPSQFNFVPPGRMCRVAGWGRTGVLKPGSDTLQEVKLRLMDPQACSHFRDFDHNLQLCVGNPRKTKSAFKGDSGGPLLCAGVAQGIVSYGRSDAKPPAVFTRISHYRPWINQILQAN

[3] = target: Urokinase-type plasminogen activator (Homo sapiens, UniProt P00749); experiment: Inhibition of urokinase; details: read-out: Ki app
Granzyme K = target: T2, Granzyme K (Homo sapiens, UniProt P49863); experiment: Inhibition of granzyme K; details: read-out: Ki app
T2 sequence (P49863 whole entry): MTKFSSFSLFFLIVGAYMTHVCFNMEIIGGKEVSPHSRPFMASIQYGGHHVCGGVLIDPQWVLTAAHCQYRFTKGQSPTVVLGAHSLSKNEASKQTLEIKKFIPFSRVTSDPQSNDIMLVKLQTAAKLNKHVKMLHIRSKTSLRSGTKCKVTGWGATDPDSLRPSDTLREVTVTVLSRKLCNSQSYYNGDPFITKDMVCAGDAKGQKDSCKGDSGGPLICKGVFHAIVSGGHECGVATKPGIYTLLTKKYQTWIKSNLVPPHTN

[4] = Steady state volume of distribution in rat at 0.5 mg/kg, iv; assay type: ADME, organism-based; parameters: dose 0.5 mg/kg, route intravenous; details: in vivo, read-out: Vss
[5] = Mean residence time in rat at 0.5 mg/kg, iv; assay type: ADME, organism-based; parameters: dose 0.5 mg/kg, route intravenous; details: in vivo
[6] = AUC in rat at 0.5 mg/kg, iv; assay type: ADME, organism-based; parameters: dose 0.5 mg/kg, route intravenous; details: plasma
[7] = Terminal half life in rat at 0.5 mg/kg, iv; assay type: ADME, organism-based; parameters: dose 0.5 mg/kg, route intravenous; details: in vivo
[8] = Oral absorption in rat at 5 mg/kg, po; assay type: ADME, organism-based; parameters: dose 5 mg/kg, route oral; details: in vivo
[9] = Oral bioavailability in rat at 5 mg/kg, po; assay type: ADME, organism-based; details: in vivo
[10] = Terminal half life in rat at 5 mg/kg, po; assay type: ADME, organism-based; parameters: dose 5 mg/kg, route oral; details: in vivo
[11] = Cmax in rat at 0.5 mg/kg, iv; assay type: ADME, organism-based; parameters: dose 0.5 mg/kg, route intravenous; details: in vivo
[12] = Clearance in rat at 0.5 mg/kg, iv; assay type: ADME, organism-based; parameters: dose 0.5 mg/kg, route intravenous; details: in vivo
[13] = Central volume of distribution in rat at 0.5 mg/kg, iv; assay type: ADME, organism-based; parameters: dose 0.5 mg/kg, route intravenous; details: in vivo, read-out: Vc

Chain of Tryptase beta-1 (Q15661 whole entry): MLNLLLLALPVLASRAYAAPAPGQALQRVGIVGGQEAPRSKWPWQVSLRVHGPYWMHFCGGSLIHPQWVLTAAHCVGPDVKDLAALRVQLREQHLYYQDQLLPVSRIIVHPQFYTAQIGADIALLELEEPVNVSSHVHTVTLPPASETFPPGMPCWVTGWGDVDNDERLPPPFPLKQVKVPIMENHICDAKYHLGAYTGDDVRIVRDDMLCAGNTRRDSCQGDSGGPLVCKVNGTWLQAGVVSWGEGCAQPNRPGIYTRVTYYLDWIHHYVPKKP
Chain of Plasma kallikrein (P03952 20-390 limits assumed): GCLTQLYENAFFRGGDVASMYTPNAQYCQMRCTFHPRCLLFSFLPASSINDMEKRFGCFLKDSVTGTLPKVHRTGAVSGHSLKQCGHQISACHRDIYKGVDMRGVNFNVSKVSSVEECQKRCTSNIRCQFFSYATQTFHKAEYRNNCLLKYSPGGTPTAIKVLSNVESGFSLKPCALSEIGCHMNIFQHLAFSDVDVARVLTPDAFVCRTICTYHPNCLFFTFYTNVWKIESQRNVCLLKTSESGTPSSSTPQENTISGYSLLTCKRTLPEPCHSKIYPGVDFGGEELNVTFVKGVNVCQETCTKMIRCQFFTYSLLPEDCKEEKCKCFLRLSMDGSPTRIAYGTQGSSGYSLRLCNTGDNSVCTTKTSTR
Chain of Plasma kallikrein (P03952 391-638 limits assumed): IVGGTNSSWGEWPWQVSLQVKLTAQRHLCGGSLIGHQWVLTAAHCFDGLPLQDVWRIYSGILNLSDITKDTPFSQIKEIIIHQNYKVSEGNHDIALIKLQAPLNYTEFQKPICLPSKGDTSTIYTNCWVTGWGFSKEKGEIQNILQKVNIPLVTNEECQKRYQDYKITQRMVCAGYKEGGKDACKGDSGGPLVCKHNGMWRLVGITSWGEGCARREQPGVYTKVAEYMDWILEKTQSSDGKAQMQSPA
Chain of Chymotrypsinogen B (P17538 34-164 limits assumed, other chains not shown): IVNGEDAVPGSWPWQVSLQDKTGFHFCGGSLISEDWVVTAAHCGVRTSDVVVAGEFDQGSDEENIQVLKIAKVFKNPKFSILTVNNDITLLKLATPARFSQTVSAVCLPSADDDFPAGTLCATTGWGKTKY
Chain of Chymotrypsinogen B (P17538 167-263 limits assumed, other chains not shown): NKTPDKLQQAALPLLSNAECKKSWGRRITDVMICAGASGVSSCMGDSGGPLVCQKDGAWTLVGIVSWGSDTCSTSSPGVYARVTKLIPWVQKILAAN
Chain of Vitamin K-dependent protein C (P04070 43-197 limits assumed): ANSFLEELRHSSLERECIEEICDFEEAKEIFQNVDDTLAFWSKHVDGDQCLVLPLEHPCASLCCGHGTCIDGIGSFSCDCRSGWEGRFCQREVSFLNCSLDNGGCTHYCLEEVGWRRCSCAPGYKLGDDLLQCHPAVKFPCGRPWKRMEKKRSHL
Chain of Vitamin K-dependent protein C (P04070 212-461 limits assumed): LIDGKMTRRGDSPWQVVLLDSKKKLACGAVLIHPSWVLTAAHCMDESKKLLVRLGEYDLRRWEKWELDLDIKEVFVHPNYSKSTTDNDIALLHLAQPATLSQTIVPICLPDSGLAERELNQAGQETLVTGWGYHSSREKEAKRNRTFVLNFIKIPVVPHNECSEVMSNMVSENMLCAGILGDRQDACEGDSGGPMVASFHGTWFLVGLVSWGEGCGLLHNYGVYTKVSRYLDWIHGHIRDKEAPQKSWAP
Chain of Plasminogen (P00747 97-580 limits assumed): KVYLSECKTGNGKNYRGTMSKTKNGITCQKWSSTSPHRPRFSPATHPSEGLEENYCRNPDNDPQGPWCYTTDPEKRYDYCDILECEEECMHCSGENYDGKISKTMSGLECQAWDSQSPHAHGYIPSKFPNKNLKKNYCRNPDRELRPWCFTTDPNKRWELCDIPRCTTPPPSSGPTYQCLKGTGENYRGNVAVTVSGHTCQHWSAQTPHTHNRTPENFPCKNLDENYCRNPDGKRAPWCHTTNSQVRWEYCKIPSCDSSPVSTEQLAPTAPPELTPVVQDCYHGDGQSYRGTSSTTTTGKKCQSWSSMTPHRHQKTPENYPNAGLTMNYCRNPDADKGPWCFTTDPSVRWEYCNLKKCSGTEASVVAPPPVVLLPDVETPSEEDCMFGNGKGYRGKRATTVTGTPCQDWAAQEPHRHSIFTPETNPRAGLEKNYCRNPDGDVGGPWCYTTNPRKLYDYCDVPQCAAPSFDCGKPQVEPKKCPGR
Chain of Plasminogen (P00747 581-810 limits assumed): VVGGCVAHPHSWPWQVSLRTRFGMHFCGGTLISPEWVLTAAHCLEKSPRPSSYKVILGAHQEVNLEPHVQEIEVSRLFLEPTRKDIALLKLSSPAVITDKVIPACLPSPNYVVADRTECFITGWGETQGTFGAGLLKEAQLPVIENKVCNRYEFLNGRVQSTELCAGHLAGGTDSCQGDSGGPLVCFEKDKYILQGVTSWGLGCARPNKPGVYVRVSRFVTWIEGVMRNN

Ki (Tryptase beta-1) | Ki app (Trypsin) | Selectivity ratio (Homo sapiens) | Compound | other results
17 nM | 2200 nM | 129 | COC(=O)N[C@@H](CCCCN)C(=O)c1noc(Cc2ccc(OCCc3ccc(Cl)c(Cl)c3)cc2)n1.Cl | –
46 nM | 3900 nM | 85 | Cc1cc(C(=O)N[C@@H](CCCCN)C(=O)c2noc(Cc3ccc(OCCc4ccc(Cl)c(Cl)c4)cc3)n2)c(C)o1.Cl | –
5 nM | 500 nM | 100 | COCCOC(=O)N[C@@H](CCCCN)C(=O)c1noc(Cc2ccc(OCCc3ccc(Cl)c(Cl)c3)cc2)n1.Cl | –
11 nM | 1900 nM | 173 | CC(C)(C)COC(=O)N[C@@H](CCCCN)C(=O)c1noc(Cc2ccc(OCCc3ccc(Cl)c(Cl)c3)cc2)n1.Cl | –
3.7 nM | 190 nM | 51 | COCC(=O)N[C@@H](CCCCN)C(=O)c1noc(Cc2ccc(OCCc3ccc(Cl)c(Cl)c3)cc2)n1.Cl | –
4.6 nM | – | 10 | NCCCC[C@H](NC(=O)C1CC1)C(=O)c1noc(Cc2ccc(OCCc3ccc(Cl)c(Cl)c3)cc2)n1 | –
18 nM | 2400 nM | 133 | CCN(CC)C(=O)N[C@@H](CCCCN)C(=O)c1noc(Cc2ccc(OCCc3ccc(Cl)c(Cl)c3)cc2)n1.Cl | –
5 nM | 415 nM | 83 | CC(C)OC(=O)N[C@@H](CCCCN)C(=O)c1noc(Cc2ccc(OCCc3ccc(Cl)c(Cl)c3)cc2)n1.Cl | –
9.8 nM | 180 nM | 18 | CCCCCC(=O)N[C@@H](CCCCN)C(=O)c1noc(Cc2ccc(OCCc3ccc(Cl)c(Cl)c3)cc2)n1.Cl | –
3.75 nM | 625 nM | 167 | CC(C)(C)C(=O)N[C@@H](CCCCN)C(=O)c1noc(Cc2ccc(OCCc3ccc(Cl)c(Cl)c3)cc2)n1.Cl | –

The next lines start with the molecule.

Compound | Ki (Tryptase beta-1) | Ki app (Trypsin) | Selectivity ratio (Homo sapiens) | other results
CCOC(=O)N[C@@H](CCCCN)C(=O)c1noc(Cc2ccc(OCCc3ccc(Cl)c(Cl)c3)cc2)n1.Cl | 4.7 nM | 380 nM | 81 | –
CCOC(=O)N[C@@H](CCCCN)C(=O)c1noc(Cc2ccc(OCCc3ccccc3)cc2)n1 | 5.4 nM | 190 nM | – | Ki (Prothrombin): 64000 nM; Ki (Plasminogen): 430 nM; Ki (Plasma kallikrein): 43000 nM; Ki [1]: > 150000 nM; Ki (Chymotrypsinogen B): > 150000 nM; Ki [2]: > 150000 nM; Ki (Chymase): > 150000 nM; Ki [3]: > 150000 nM; Ki (Granzyme K): > 150000 nM
Cl.NCCCC[C@H](NC(=O)C1CCOC1)C(=O)c1noc(Cc2ccc(OCCc3ccc(Cl)c(Cl)c3)cc2)n1 (stereo partly drawn) | 22 nM | 1100 nM | 50 | –
Cl.NCCCC[C@H](NC(=O)N1CCCC1)C(=O)c1noc(Cc2ccc(OCCc3ccc(Cl)c(Cl)c3)cc2)n1 | 32 nM | 3800 nM | 119 | –
Cl.NCCCC[C@H](NC(=O)N1CCCCC1)C(=O)c1noc(Cc2ccc(OCCc3ccc(Cl)c(Cl)c3)cc2)n1 | 9.2 nM | 1400 nM | 152 | –
Cl.NCCCC[C@H](NC(=O)c1ccc(F)cc1)C(=O)c1noc(Cc2ccc(OCCc3ccc(Cl)c(Cl)c3)cc2)n1 | – | 1100 nM | – | Vd [4]: 7.8 L/kg; MRT [5]: 2.88 h; AUC [6]: 0.3 µM·h; half-life [7]: 2.9 h; Fa [8]: 12%; bioavailability [9]: 9%; half-life [10]: 2.25 h; Cmax [11]: 1010 nM; clearance [12]: 45 mL/min/kg; Vd [13]: 0.457 L/kg
Cl.NCCCC[C@H](NC(=O)c1cccc(F)c1)C(=O)c1noc(Cc2ccc(OCCc3ccc(Cl)c(Cl)c3)cc2)n1 | 5.8 nM | 1700 nM | 293 | –
Cl.NCCCC[C@H](NC(=O)c1ccccc1F)C(=O)c1noc(Cc2ccc(OCCc3ccc(Cl)c(Cl)c3)cc2)n1 | 6.2 nM | 1100 nM | 177 | –
CN(C)C(=O)N[C@@H](CCCCN)C(=O)c1noc(Cc2ccc(OCCc3ccc(Cl)c(Cl)c3)cc2)n1.Cl | 9.6 nM | 850 nM | 89 | –
Cl.NCCCC[C@H](NC(=O)c1ccc(Cl)cc1)C(=O)c1noc(Cc2ccc(OCCc3ccc(Cl)c(Cl)c3)cc2)n1 | 6.55 nM | 2550 nM | 389 | –
Cl.NCCCC[C@H](NC(=O)C(F)(F)F)C(=O)c1noc(Cc2ccc(OCCc3ccc(Cl)c(Cl)c3)cc2)n1 | 2.9 nM | 220 nM | 76 | –
Cl.NCCCC[C@H](NC(=O)N1CCOCC1)C(=O)c1noc(Cc2ccc(OCCc3ccc(Cl)c(Cl)c3)cc2)n1 | 5.7 nM | 870 nM | 153 | –
Cl.NCCCC[C@H](NC(=O)C1CCCC1)C(=O)c1noc(Cc2ccc(OCCc3ccc(Cl)c(Cl)c3)cc2)n1 | 6.5 nM | 300 nM | 46 | –
Cl.NCCCC[C@H](NC(=O)c1ccc(F)cc1F)C(=O)c1noc(Cc2ccc(OCCc3ccc(Cl)c(Cl)c3)cc2)n1 | 3.25 nM | 1150 nM | 354 | –
CC(C)C(=O)N[C@@H](CCCCN)C(=O)c1noc(Cc2ccc(OCCc3ccc(Cl)c(Cl)c3)cc2)n1.Cl | 6.8 nM | 120 nM | 18 | –
Cl.NCCCC[C@H](NC(=O)c1ccco1)C(=O)c1noc(Cc2ccc(OCCc3ccc(Cl)c(Cl)c3)cc2)n1 | 2.3 nM | 480 nM | 209 | –
